We go through four compounds from patent publication US7576093B2, “Method of treatment of bone-related disorders or conditions” (AstraZeneca AB, priority 2006, dated 2009).

In assay [1] the test system is Sprague Dawley rats. Put plainly: Trabecular bone mineral density of femur metaphysis by peripheral quantitative computed tomography after 14 days oral dosing. The assay is classed as in vivo, rat. Particulars: male Sprague Dawley rats, oral gavage 14 days, 3 μmol/kg twice daily or 30 μmol/kg once daily, every second or every fourth day; FIG. 5a-5c. Here is the method:
In a separate rat study, the effect of the compound 3-amino-6-[4-(4-methylpiperazin-1-yl)sulfonylphenyl]-N-pyridin-3-ylpyrazine-2-carboxamide on the bone mineral density (BMD) […]. The compound was formulated as a ultrapure solution in water (pH 3.5). The Male Sprague Dawley rats were dosed during 14 days by oral gavage. The study contained 4 dose groups with different dosing regimes and a vehicle control, namely 3 μmol/kg (twice daily) or 30 μmol/kg (once daily, once every second day or once every fourth day). Plasma samples were always taken 2 hrs after the oral dose was given in the morning. After 14 days, the rats were euthanized, and their right femurs were removed. The trabecular bone density of the femur metaphyses were measured utilizing peripheral quantitative computed Tomography method.

Assay [2] concerns calcitonin. In words: Calcitonin plasma levels in rats after 7 days oral dosing (ELISA). It counts as in vivo, rat. The settings on record: male Sprague Dawley rats, 30 μmol/kg/day orally for 7 days, 3 hours after last dose, vs vehicle. Here is the method: (§1) In a separate rat study, the effect of the compound 3-amino-6-[4-(4-methylpiperazin-1-yl)sulfonylphenyl]-N-pyridin-3-ylpyrazine-2-carboxamide on osteocalcin levels, used as a marker for bone formation, was studied. Parathyroid hormone (PTH) and calcitonin levels were also analysed. The compound was formulated as a solution in water. Male Sprague Dawley rats were given 30 μmol/kg/day of the compound orally for 7 days and then compared to vehicle control rats. Blood samples were taken before the first drug administration at day 1, and 3 hours after the last dose at day 7. Osteocalcin plasma levels were measured using a commercial immunoassay (ELISA kit (catalogue # BT-490, Biomedical Technologies Inc. MA, USA)). Intact PTH levels were analyzed using a commercial ELISA kit (catalogue # 60-2700, Immutopics Inc. CA, USA). The calcitonin was measured in the following way, 200 μL plasma was precipitated with 1 mL acid ethanol, mixed vigorously and centrifuged for 15 min at 1500 g. The supernatant was decanted into a new tube and evaporated with a stream of nitrogen in a Turbo Vap. After reconstitution in assay buffer, calcitonin levels were analyzed using a commercial ELISA kit (catalogue # S-1197, Peninsula. Calif., USA).
For orientation: An ELISA detects its analyte on a solid surface through an enzyme-linked reagent.

Assay [3] has as its system osteocalcin. In words: Osteocalcin plasma levels in rats after 7 days oral dosing (ELISA). It counts as in vivo, rat. Particulars: male Sprague Dawley rats, 30 μmol/kg/day orally for 7 days, 3 hours after last dose, vs vehicle. Here is the method:
as §1

In assay [4] the test system is Han Wistar rats. Put plainly: Four-week oral rat study, light microscopy of bone sections (bone formation). It counts as in vivo. Here is the method:
The compound 3-amino-6-[4-(4-methylpiperazin-1-yl)sulfonylphenyl]-N-pyridin-3-ylpyrazine-2-carboxamide was formulated as a solution in water. Male and female Han Wistar rats were dosed by oral gavage, at dosages of 10, 30 or 60 μmol/kg/day for four weeks and compared to vehicle controls. Complete necropsies were performed and the tissues preserved in 10% formalin. The femur, femorotibial joint, sternum and hind paws were decalcified, embedded in paraffin, sectioned at 5 μm thickness and stained with hematoxylin and eosin.

Assay [5] has as its system Parathyroid hormone (PTH). Put plainly: Intact PTH plasma levels in rats after 7 days oral dosing (ELISA). Particulars: male Sprague Dawley rats, 30 μmol/kg/day orally for 7 days, 3 hours after last dose, vs vehicle. The assay is classed as in vivo, rat. Here is the method:
as §1

In assay [6] the test system is Sprague Dawley rats. Put plainly: Histopathology of bone in the 7-day rat study. The assay is classed as in vivo. The settings on record: male Sprague Dawley rats, 30 μmol/kg/day orally for 7 days.
In assay [7] the target is T1, GSK3β (Mus musculus, UniProt Q9WV60).
T1 construct: host or cells: osteoblasts in culture (endogenous protein)
T1 sequence (Q9WV60 whole entry): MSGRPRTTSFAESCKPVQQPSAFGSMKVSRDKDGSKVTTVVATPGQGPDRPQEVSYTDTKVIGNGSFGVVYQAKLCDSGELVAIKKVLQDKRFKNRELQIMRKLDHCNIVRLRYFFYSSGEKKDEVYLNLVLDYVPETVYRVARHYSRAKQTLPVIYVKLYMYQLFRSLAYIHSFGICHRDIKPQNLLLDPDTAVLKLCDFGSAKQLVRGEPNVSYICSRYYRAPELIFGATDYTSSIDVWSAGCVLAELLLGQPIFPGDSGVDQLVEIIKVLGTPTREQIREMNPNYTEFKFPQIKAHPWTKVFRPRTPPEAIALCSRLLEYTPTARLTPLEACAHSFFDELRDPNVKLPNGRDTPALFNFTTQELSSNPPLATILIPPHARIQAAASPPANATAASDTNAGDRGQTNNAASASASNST
Particulars: glucocorticoid-treated osteoblasts in culture, GSK3β inhibited; cited from earlier work.

[8] abbreviates: rat, 60 μmol/kg for 4 weeks, vs vehicle-treated control.

For `Nc1ncc(-c2ccc(S(N)(=O)=O)cc2)nc1C(=O)Nc1cccnc1` [3-amino-N-pyridin-3-yl-6-(4-sulfamoylphenyl)pyrazine-2-carboxamide], the “bone mineral density (BMD) in the trabeculae of the right femur metaphysis” value (“bone mineral density (BMD)” below) in assay [1] is given as “BMD increases”.
As for `CN1CCN(S(=O)(=O)c2ccc(-c3cnc(N)c(C(=O)Nc4cccnc4)n3)cc2)CC1` [3-amino-6-[4-(4-methylpiperazin-1-yl)sulfonylphenyl]-N-pyridin-3-ylpyrazine-2-carboxamide], the calcitonin plasma levels entry in assay [2] is recorded as “significantly increased”. Also, the Osteocalcin plasma levels result in assay [3] is recorded as “significantly increased”. Also, in assay [4] (male and female Han Wistar rats, oral gavage 10, 30 or 60 μmol/kg/day for four weeks, all dose levels, vs vehicle), the “bone formation (thickened trabeculae, thickened cortical bone, periosteal hyperostosis, increased number of osteoblasts) by light microscopy” value is listed as “increased bone formation”. For the same compound, in assay [4] (setting [8]), the “formation of osteoid in femur (diaphysis), FIG. 1b” value is “marked increase in formation of osteoid” and the “formation of osteoid in femur (diaphysis), FIG. 1b (figure legend)” value is given as “marked increase in formation of osteoid”. In addition, the PTH plasma levels result in assay [5] was “significantly increased”. Moreover, the “bone formation, histopathologically” value in assay [6] is reported as “increased bone formation”. Also, the “bone mineral density (BMD)” value in assay [1] was “BMD increases”.
In the case of `[Cl-].[Li+]` [lithium chloride], in assay [7], the “attenuated cell cycle and reduced c-Myc level in osteoblasts” value was “returned to normal”.
In the case of `Nc1ncc(-c2ccc(S(=O)(=O)N3CCNCC3)cc2)nc1C(=O)Nc1cccnc1` [3-amino-6-(4-piperazin-1-ylsulfonylphenyl)-N-pyridin-3-ylpyrazine-2-carboxamide], the “bone mineral density (BMD)” value in assay [1] is given as “BMD increases”.
